Assay results as given in US11415579B2, “Assay for measuring a rate of reaction between a target and a ligand candidate” (Imperial College Innovations Ltd., priority 2016, dated 2022).

What was measured:
[1] = Kinetic thiol consumption assay with model thiol glutathione; assay type: physicochemical; parameters: Rate constant with glutathione (k(GSH)): unit not given here; settings: for Rate constant with glutathione (k(GSH)): 500 μM ligand, 5 μM thiol, phosphate buffer pH 8; for Rate constant with Glutathione: Protein: Glutathione, cysteine position NA, in h-1
Description: (§1) A library of 120 acrylamides was screened against a) human cyclin-dependent kinase 2 (Cdk2, which contains one surface exposed cysteine residue—C177), prepared by cloning cDNA into the pRSETA bacterial expression vector to generate a poly-histidine tagged Cdk2 fusion that was purified from E. coli using standard techniques, and b) a model thiol (specific details are given below). The structures of these 120 acrylamides are set out in Table 1, above.
(§2) To wells containing 150 μL thiol (Cdk2 or model thiol) (5 μM) in degassed phosphate buffer (pH 8) was added immobilized TCEP beads (2% v/v).
(§3) After incubation of the fluorescence plates for 1 hour at room temperature, fluorescence measurements (excitation/emission of 380/470 nm) were taken on a PerkinElmer EnVision multilabel plate reader and processed with EnVision Workstation version 1.12.
(§4) Fluorescence measurements were normalized against a DMSO/thiol only control and plotted against time.
(§5) Rate constants were calculated using GraphPad software Prism version 6 by fitting a first order exponential decay to the data. The rate constant for each acrylamide with Cdk2 was divided by the rate constant for that fragment with the model thiol to provide the rate enhancement for each ligand candidate.
The model thiol in Example 1 is glutathione (GSH). Hits were defined as fragments where kCdk2/kGSH>5.8 (empirically determined as 3 standard deviations over the mean).

[2] = target: T1, human cyclin-dependent kinase 2 (Cdk2) (Homo sapiens, UniProt P24941); test: Kinetic thiol consumption assay with wild type Cdk2 (C177); assay type: binding; parameters: key to Rate enhancement, Cdk2 WT: k(Cdk2) divided by k(model thiol); Rate constant with Cdk2 (k(Cdk2)): unit not given here; settings: for Rate constant with Cdk2 (k(Cdk2)): 500 μM ligand, 5 μM thiol, phosphate buffer pH 8; for Rate enhancement, Cdk2 WT: no additional mutations; for Rate constant with Cdk2 WT: Protein: Cdk2, cysteine position WT, in h^-1; for k(Cdk2)/k(GSH) rate enhancement: model thiol glutathione
T1 construct: poly-histidine; made in house; host or cells: E. coli
Description: as §1, §2, §3, §4, §5

[3] = target: T2, Cdk2(C177A, F80C) (Homo sapiens, UniProt P24941, C177A/F80C); test: Kinetic thiol consumption assay with Cdk2 mutant F80C, incl. kobs versus concentration (Kd, k2); assay type: binding; parameters: key to Rate enhancement, Cdk2 F80C: Cdk2 rate constant divided by model-thiol rate constant; settings: additional mutation C177A; for Rate constant with Cdk2 F80C: Protein: Cdk2, cysteine position F80C, in h^-1
T2 construct: poly-histidine; made in house; host or cells: E. coli
Description: Therefore the assay can be used to calculate both k2 and Kd by experimentally determining kobs at a suitable range of ligand candidate concentrations. Typically Kd and k2 would then be determined by fitting a hyperbolic curve to a plot of kobs against ligand candidate concentration (FIG. 9).
as §2, §3, §4, §5
(§6) A further set of set of additional Cdk2 mutants were screened, all containing the C177A mutation and therefore with only one cysteine on the surface: • F80C (without the K278C mutation) • H71C • S276C • N272 • T182C • R122C • S181C
(§7) Mutations were introduced by site-directed mutagenesis and the resulting cDNA was cloned into the pRSETA bacterial expression vector to generate a poly-histidine tagged Cdk2 fusion that was purified from E. coli using standard techniques.
Rate constants were calculated as described in the methodology section of Examples 1 and 2.

[4] = target: T3, Cdk2(H71C) (C177A) (Homo sapiens, UniProt P24941, C177A/H71C); test: Kinetic thiol consumption assay with Cdk2 mutant H71C; assay type: binding; parameters: key to Rate enhancement, Cdk2 H71C: rate constant with Cdk2 ÷ rate constant with model thiol (fold); settings: additional mutation C177A; for Rate constant with Cdk2 H71C: Protein: Cdk2, cysteine position H71C, in h^-1
T3 construct: poly-histidine; made in house; host or cells: E. coli
Description: as §2, §3, §4, §5, §6, §7

[5] = target: T4, Cdk2(S276C) (C177A) (Homo sapiens, UniProt P24941, C177A/S276C); test: Kinetic thiol consumption assay with Cdk2 mutant S276C; assay type: binding; parameters: key to Rate enhancement, Cdk2 S276C: rate constant with Cdk2 ÷ rate constant with model thiol (fold); settings: additional mutation C177A; for Rate constant with Cdk2 S276C: Protein: Cdk2, cysteine position S276C, in h^-1
T4 construct: poly-histidine; made in house; host or cells: E. coli
Description: as §2, §3, §4, §5, §6, §7

[6] = target: T5, Cdk2(N272C) (C177A) (Homo sapiens, UniProt P24941, C177A/N272C); test: Kinetic thiol consumption assay with Cdk2 mutant N272C; assay type: binding; parameters: key to Rate enhancement, Cdk2 N272: rate constant with Cdk2 ÷ rate constant with model thiol (fold); settings: for Rate enhancement, Cdk2 N272: Cdk2 N272, additional mutation C177A; for Rate constant with Cdk2 N272C: Protein: Cdk2, cysteine position N272C, additional mutation C177A, in h^-1
T5 construct: poly-histidine; made in house; host or cells: E. coli
Description: as §2, §3, §4, §5, §6, §7

[7] = target: T6, Cdk2(T182C) (C177A) (Homo sapiens, UniProt P24941, C177A/T182C); test: Kinetic thiol consumption assay with Cdk2 mutant T182C; assay type: binding; parameters: key to Rate enhancement, Cdk2 T182C: rate constant with Cdk2 ÷ rate constant with model thiol (fold); settings: additional mutation C177A; for Rate constant with Cdk2 T182C: Protein: Cdk2, cysteine position T182C, in h^-1
T6 construct: poly-histidine; made in house; host or cells: E. coli
Description: as §2, §3, §4, §5, §6, §7

[8] = target: T7, Cdk2(R122C) (C177A) (Homo sapiens, UniProt P24941, C177A/R122C); test: Kinetic thiol consumption assay with Cdk2 mutant R122C; assay type: binding; parameters: key to Rate enhancement, Cdk2 R122C: rate constant with Cdk2 ÷ rate constant with model thiol (fold); settings: additional mutation C177A; for Rate constant with Cdk2 R122C: Protein: Cdk2, cysteine position R122C, in h-1
T7 construct: poly-histidine; made in house; host or cells: E. coli
Description: as §2, §3, §4, §5, §6, §7

[9] = target: T8, Cdk2(S181C) (C177A) (Homo sapiens, UniProt P24941, C177A/S181C); test: Kinetic thiol consumption assay with Cdk2 mutant S181C; assay type: binding; parameters: key to Rate enhancement, Cdk2 S181C: rate constant with Cdk2 ÷ rate constant with model thiol (fold); settings: additional mutation C177A; for Rate constant with Cdk2 S181C: Protein: Cdk2, cysteine position S181C, in h^-1
T8 construct: poly-histidine; made in house; host or cells: E. coli
Description: as §2, §3, §4, §5, §6, §7

| SMILES | Rate constant with glutathione (k(GSH)) [1] | Rate constant with Glutathione [1] | Rate constant with Cdk2 (k(Cdk2)) [2] | Rate enhancement, Cdk2 WT [2] | Rate constant with Cdk2 WT [2] | k(Cdk2)/k(GSH) rate enhancement [2] | Rate enhancement, Cdk2 F80C [3] | Rate constant with Cdk2 F80C [3] | Rate enhancement, Cdk2 H71C [4] | Rate enhancement, Cdk2 S276C [5] | Rate constant with Cdk2 S276C [5] | Rate enhancement, Cdk2 N272 [6] | Rate constant with Cdk2 N272C [6] | Rate enhancement, Cdk2 T182C [7] | Rate constant with Cdk2 T182C [7] | Rate enhancement, Cdk2 R122C [8] | Rate constant with Cdk2 R122C [8] | Rate enhancement, Cdk2 S181C [9] | Rate constant with Cdk2 S181C [9] | Rate constant with Cdk2 H71C [4] |
| --- | --- | --- | --- | --- | --- | --- | --- | --- | --- | --- | --- | --- | --- | --- | --- | --- | --- | --- | --- | --- |
| C=CC(=O)NC1(C(N)=O)CCCCC1 [EL-1170] | 0.00243 | 0.002427 | 0.00308 | 1.986 | 0.004821 | 1.271 | 0.5052 | 0.001226 | 0 | 0.3126 | 0.0007587 | 0.3641 | 0.0008836 | 0.5731 | 0.001391 | 0.304 | 0.0007379 | 0.953 | 0.002313 |  |
| O=C(CCl)NCCc1c[nH]c2ccccc12 [EN005] |  | 0.002533 |  | 6.167 | 0.01562 |  | 0.8693 | 0.002202 | 0.852 | 13.55 | 0.03433 | 0 |  | 11.33 | 0.02869 | 0.5681 | 0.001439 | 5.886 | 0.01491 | 0.002158 |
| O=S1(=O)C=CC(Br)C1 (stereo not shown) [EN010] |  | 0.603 |  | 2.833 | 1.708 |  | 0.00861 | 0.005192 | 0.1025 | 0.9531 | 0.5747 | 0.198 | 0.1194 | 4.219 | 2.544 | 0.3799 | 0.2291 | 0.3144 | 0.1896 | 0.06183 |
| C=CC(=O)N1CC(OCCN(CC)CC)C1 [CA-145] | 0.00318 | 0.003156 | 0.00205 | 0.6483 | 0.002046 | 0.6425 | 0 |  | 0 | 0 |  | 1.155 | 0.003646 | 1.904 | 0.00601 | 0.846 | 0.00267 | 2.572 | 0.008117 |  |
| C=CC(=O)N(C1CC1)C1CCCCC1C1CCCCC1 (stereo not shown) [CA-081/240] |  | 0.002337 |  | 7.599 | 0.01776 |  | 4.621 | 0.0108 | 0.9042 | 7.411 | 0.01732 | 3.276 | 0.007657 | 8.314 | 0.01943 | 0.7099 | 0.001659 | 9.936 | 0.02322 | 0.002113 |
| C=CC(=O)N1CCCCCC1C/C=C/c1ccccc1 (stereo not shown) [CA-096/146] |  | 0.01125 |  | 0.3023 | 0.003401 |  | 1.641 | 0.01846 | 0.8889 | 1.276 | 0.01436 | 0.8907 | 0.01002 | 10.32 | 0.1161 | 0.7142 | 0.008035 | 12.97 | 0.1459 | 0.01 |
| C=CC(=O)N(Cc1ccco1)C12CC3CC(CC(C3)C1)C2 [CA-157] | 0.00399 | 0.008283 | 0.00288 | 1.257 | 0.01041 | 0.7234 | 0.165 | 0.001367 | 1.058 | 68.22 | 0.5651 | 87.21 | 0.7224 | 10.22 | 0.08469 | 0.376 | 0.003114 | 0.9237 | 0.007651 | 0.008761 |
| O=C(CCl)N1CCCCCC1 [EN011] |  | 0.1325 |  | 0.6051 | 0.08018 |  | 0 |  | 0.08604 | 1.075 | 0.1424 | 0.1463 | 0.01938 | 0.4574 | 0.06061 | 0.02161 | 0.002863 | 0.09796 | 0.01298 | 0.0114 |
